“Also recorded” adds a separate entry of the source.
Experiments:
Fmr1 KO mice [1] = experiment: Acoustic startle paradigm (whole body flinch, Vmax); format: in vivo; conditions: adult Fmr1 KO mice
Method: In adulthood, Fmr1 KO mice have abnormal motor responses to sensory stimuli compared to WT mice in an acoustic startle paradigm.
(§1) Throughout experiments in Fmr1 KO mice, we treated animals with 1 mg/kg AZD7325, 3 mg/kg AZD7325 or vehicle (VEH) by oral gavage to mimic the human exposure route. Juvenile mice were treated acutely and adult mice were treated chronically prior to and throughout behavior analysis.
(§2) Audiogenic seizure susceptibility in Fmr1 KO mice, which is thought to be the result of increased neuronal activity in response to sensory stimuli, peaks around the third week of life and manifests as wild running which is typically followed by tonic-clonic seizure. […] In adulthood, Fmr1 KO mice have abnormal motor responses to sensory stimuli compared to WT mice in an acoustic startle paradigm. […] This type of deficit in the VEH-treated Fmr1 KO mice is reminiscent of the exaggerated anxiety responses people with FXS commonly display.

Fmr1 KO mice [2] = experiment: Conditioned fear response to mild foot shock (cued portion); format: in vivo; conditions: both dose levels (1 and 3 mg/kg), oral gavage, KO mice vs WT
Method: as §1, §2

Fmr1 KO mice [3] = experiment: Audiogenic seizure susceptibility (120 dB siren); format: in vivo; conditions: oral gavage, acute, 30 min prior to testing, juvenile mice, VEH approximately 60%
Method: as §1, §2

Fmr1 KO mice [4] = experiment: Novel object recognition paradigm; format: in vivo; conditions: low dose (1 mg/kg), oral gavage, KO mice vs KO+VEH
Method: as §1, §2
Based upon preclinical data in FXS implicating insufficient GABA(A) activity in the pathophysiology of the disorder combined with preclinical and human evidence (unpublished data) supporting the tolerability and effectiveness of improving aberrant behavior, 4-amino-8-(2-fluoro-6-methoxy-phenyl)-N-propyl-cinnoline-3-carboxamide is an ideal molecule to develop as a clinical treatment in humans with FXS.

FXS KO mice [5] = conditions: preclinical literature; cited from earlier work
FXS KO mice [6] = conditions: preclinical literature; cited from earlier work; remark: listed apart in the source
FXS KO mice [7] = conditions: literature; cited from earlier work
FXS KO mice [8] = conditions: literature; cited from earlier work; remark: listed apart in the source
FXS KO mice [9] = conditions: literature; cited from earlier work; remark: listed apart in the source

## CCCNC(=O)c1nnc2c(-c3c(F)cccc3OC)cccc2c1N [AZD7325, 4-amino-8-(2-fluoro-6-methoxy-phenyl)-N-propyl-cinnoline-3-carboxamide]
Fmr1 KO mice [1]; 82 db white noise burst, 10 trial blocks, chronic low dose
  Whole body flinching, low-level acoustic startle: significantly reduced whole body flinching
Fmr1 KO mice [1]; 120 dB stimulus, chronic treatment
  Whole body flinch response, high level acoustic stimulus: improves this response to WT levels
Fmr1 KO mice [2]
  Conditioned fear response, cued portion of the test: normalizing this behavior in KO mice
Fmr1 KO mice [3]; high dose (3 mg/kg)
  Fmr1 KO mice displaying wild running followed by seizure: 0%
Fmr1 KO mice [3]; low dose (1 mg/kg)
  Fmr1 KO mice displaying wild running followed by seizure: 11%
Fmr1 KO mice [4]
  Object memory in novel object recognition (discrimination index): attenuates deficits in object memory
Fmr1 KO mice [4]; listed as 4-amino-8-(2-fluoro-6-methoxy-phenyl)-N-propyl-cinnoline-3-carboxamide
  Object memory in novel object recognition (discrimination index): attenuates deficits in object memory; also recorded: greater interest in the novel object

## CC(=O)[C@H]1CC[C@H]2[C@@H]3CC[C@H]4C[C@H](O)CC[C@]4(C)[C@H]3C(=O)C[C@]12C [alphaxalone]
FXS KO mice [5]
  Anxiety: reductions in anxiety
FXS KO mice [6]
  Audiogenic seizures: rescue of audiogenic seizures

## Oc1noc2c1CCNC2 [gaboxadol]
FXS KO mice [7]
  Prepulse inhibition (PPI) alterations: reduced prepulse inhibition (PPI) alterations
FXS KO mice [8]
  Hyperactivity: reduced hyperactivity
FXS KO mice [9]
  Neuron excitability deficits in the amygdala: restored neuron excitability deficits in the amygdala

Source: patent US11311539B2, “Compositions and methods for treatment of fragile X syndrome” (Children's Hospital Medical Center, priority 2015, dated 2022)
